From the NIST ThermoML archive (doi:10.1021/je060271a)
Values joined by “and” are separate entries in the source; they are usually repeats but may differ in a detail not shown here. Identical values can stand only once. ± gives the expanded uncertainty stated by the source.

Conditions: 283.15 K, Liquid, Vibrating tube method

Q: What does the source list for CCCCCC(=O)OCC(COC(=O)CCCCC)(COC(=O)CCCCC)COC(=O)CCCCC [pentaerythritol tetrahexanoate]?
A: mass density (5731.2 kPa): 1007.5 ± 1.2 kg/m3; mass density (5738.3 kPa): 1007.6 ± 1.2 kg/m3; mass density (5746.2 kPa): 1007.4 ± 1.2 kg/m3; mass density (5753.3 kPa): 1007.5 ± 1.2 kg/m3; mass density (5760 kPa): 1007.4 ± 1.2 kg/m3; mass density (5767.3 kPa): 1007.5 ± 1.2 kg/m3; mass density (5775.5 kPa): 1007.5 ± 1.2 kg/m3; mass density (5783.9 kPa): 1007.6 ± 1.2 kg/m3; mass density (5790.7 kPa): 1007.4 ± 1.2 kg/m3; mass density (5797.8 kPa): 1007.5 ± 1.2 kg/m3; mass density (5804.7 kPa): 1007.5 ± 1.2 kg/m3; mass density (5812.8 kPa): 1007.6 ± 1.2 kg/m3; mass density (5819.9 kPa): 1007.5 ± 1.2 kg/m3; mass density (5826.8 kPa): 1007.5 ± 1.2 kg/m3; mass density (5833.7 kPa): 1007.4 ± 1.2 kg/m3; mass density (5842.2 kPa): 1007.5 ± 1.2 kg/m3; mass density (5849.3 kPa): 1007.5 ± 1.2 kg/m3; mass density (5856.6 kPa): 1007.5 ± 1.2 kg/m3; mass density (5863.6 kPa): 1007.7 ± 1.2 kg/m3; mass density (5872 kPa): 1007.5 ± 1.2 kg/m3; mass density (5878.9 kPa): 1007.5 ± 1.2 kg/m3; mass density (5885.8 kPa): 1007.5 ± 1.2 kg/m3; mass density (5894.4 kPa): 1007.7 ± 1.2 kg/m3; mass density (5901.3 kPa): 1007.5 ± 1.2 kg/m3; mass density (5908.3 kPa): 1007.6 ± 1.2 kg/m3; mass density (5915.7 kPa): 1007.5 ± 1.2 kg/m3; mass density (5924.3 kPa): 1007.6 ± 1.2 kg/m3; mass density (5930 kPa): 1007.7 ± 1.2 kg/m3; mass density (5935.7 kPa): 1007.7 ± 1.2 kg/m3; mass density (5942.8 kPa): 1007.6 ± 1.2 kg/m3; mass density (5953 kPa): 1007.5 ± 1.2 kg/m3; mass density (5960.1 kPa): 1007.6 ± 1.2 kg/m3; mass density (5968.6 kPa): 1007.6 ± 1.2 kg/m3; mass density (5976.4 kPa): 1007.6 ± 1.2 kg/m3; mass density (5984.7 kPa): 1007.6 ± 1.2 kg/m3; mass density (5991.9 kPa): 1007.6 ± 1.2 kg/m3; mass density (5999.2 kPa): 1007.7 ± 1.2 kg/m3; mass density (6006.6 kPa): 1007.7 ± 1.2 kg/m3; mass density (6015.4 kPa): 1007.6 ± 1.2 kg/m3; mass density (6022.9 kPa): 1007.7 ± 1.2 kg/m3; mass density (6030.1 kPa): 1007.6 ± 1.2 kg/m3; mass density (6038.8 kPa): 1007.8 ± 1.2 kg/m3; mass density (6046 kPa): 1007.6 ± 1.2 kg/m3; mass density (6053.1 kPa): 1007.6 ± 1.2 kg/m3; mass density (6061.9 kPa): 1007.7 ± 1.2 kg/m3; mass density (6069.2 kPa): 1007.6 ± 1.2 kg/m3; mass density (6076.6 kPa): 1007.8 ± 1.2 kg/m3; mass density (6084.1 kPa): 1007.7 ± 1.2 kg/m3; mass density (6092.7 kPa): 1007.8 ± 1.2 kg/m3; mass density (6100.3 kPa): 1007.7 ± 1.2 kg/m3; mass density (6107.6 kPa): 1007.6 ± 1.2 kg/m3; mass density (6115.2 kPa): 1007.6 ± 1.2 kg/m3; mass density (6124 kPa): 1007.8 ± 1.2 kg/m3; mass density (6131.6 kPa): 1007.7 ± 1.2 kg/m3; mass density (6139 kPa): 1007.7 ± 1.2 kg/m3; mass density (6146.6 kPa): 1007.7 ± 1.2 kg/m3; mass density (6155.4 kPa): 1007.7 ± 1.2 kg/m3; mass density (6163 kPa): 1007.7 ± 1.2 kg/m3; mass density (6170.1 kPa): 1007.8 ± 1.2 kg/m3; mass density (6179.1 kPa): 1007.7 ± 1.2 kg/m3; mass density (6186.9 kPa): 1007.6 ± 1.2 kg/m3; mass density (6194.5 kPa): 1007.8 ± 1.2 kg/m3; mass density (6202.1 kPa): 1007.8 ± 1.2 kg/m3; mass density (6209.7 kPa): 1007.9 ± 1.2 kg/m3; mass density (6218.9 kPa): 1007.8 ± 1.2 kg/m3; mass density (6226.1 kPa): 1007.8 ± 1.2 kg/m3; mass density (6233.7 kPa): 1007.8 ± 1.2 kg/m3; mass density (6242.7 kPa): 1007.8 ± 1.2 kg/m3; mass density (6250.3 kPa): 1007.9 ± 1.2 kg/m3; mass density (6257.9 kPa): 1007.8 ± 1.2 kg/m3; mass density (6265.5 kPa): 1007.8 ± 1.2 kg/m3; mass density (6274.9 kPa): 1007.7 ± 1.2 kg/m3; mass density (6282.3 kPa): 1007.9 ± 1.2 kg/m3; mass density (6290.1 kPa): 1007.8 ± 1.2 kg/m3; mass density (6299.1 kPa): 1007.7 ± 1.2 kg/m3; mass density (6306.5 kPa): 1007.9 ± 1.2 kg/m3; mass density (6314.3 kPa): 1007.8 ± 1.2 kg/m3; mass density (6323.1 kPa): 1007.8 ± 1.2 kg/m3; mass density (6330.4 kPa): 1007.8 ± 1.2 kg/m3; mass density (6338.1 kPa): 1007.8 ± 1.2 kg/m3; mass density (6346.1 kPa): 1007.8 ± 1.2 kg/m3; mass density (6355.4 kPa): 1007.9 ± 1.2 kg/m3; mass density (6362.3 kPa): 1007.8 ± 1.2 kg/m3; mass density (6369.9 kPa): 1007.8 ± 1.2 kg/m3; mass density (6377.7 kPa): 1007.8 ± 1.2 kg/m3; mass density (6386.6 kPa): 1007.9 ± 1.2 kg/m3; mass density (6394.2 kPa): 1007.9 ± 1.3 kg/m3; mass density (6401.7 kPa): 1007.9 ± 1.2 kg/m3; mass density (6409.5 kPa): 1007.9 ± 1.2 kg/m3; mass density (6418.4 kPa): 1007.9 ± 1.2 kg/m3; mass density (6426 kPa): 1007.9 ± 1.2 kg/m3; mass density (6433.3 kPa): 1007.9 ± 1.2 kg/m3; mass density (6442.5 kPa): 1007.9 ± 1.2 kg/m3; mass density (6450.4 kPa): 1007.9 ± 1.2 kg/m3; mass density (6458.4 kPa): 1007.9 ± 1.2 kg/m3; mass density (6466.9 kPa): 1007.9 ± 1.2 kg/m3; mass density (6474.6 kPa): 1007.9 ± 1.2 kg/m3; mass density (6481.9 kPa): 1008 ± 1.2 kg/m3; mass density (6491.1 kPa): 1007.8 ± 1.2 kg/m3; mass density (6498.3 kPa): 1008 ± 1.2 kg/m3; mass density (6505.6 kPa): 1008 ± 1.2 kg/m3; mass density (6514.4 kPa): 1007.8 ± 1.2 kg/m3; mass density (6522 kPa): 1007.9 ± 1.2 kg/m3; mass density (6529.2 kPa): 1007.9 ± 1.2 kg/m3; mass density (6536.7 kPa): 1008 ± 1.2 kg/m3; mass density (6545 kPa): 1008 ± 1.2 kg/m3; mass density (6552.2 kPa): 1007.9 ± 1.2 kg/m3; mass density (6559.5 kPa): 1008.1 ± 1.2 kg/m3; mass density (6566.4 kPa): 1007.9 ± 1.2 kg/m3; mass density (6573.6 kPa): 1008 ± 1.2 kg/m3; mass density (6578.7 kPa): 1007.9 ± 1.2 kg/m3; mass density (6583 kPa): 1008 ± 1.2 kg/m3; mass density (6587.1 kPa): 1008 ± 1.2 kg/m3; mass density (6592.1 kPa): 1007.9 ± 1.2 kg/m3; mass density (6596.3 kPa): 1008 ± 1.2 kg/m3; mass density (6600.4 kPa): 1008.1 ± 1.2 kg/m3; mass density (6605.4 kPa): 1007.9 ± 1.2 kg/m3; mass density (6609.2 kPa): 1007.9 ± 1.2 kg/m3; mass density (6613.4 kPa): 1007.9 ± 1.2 kg/m3; mass density (6635.7 kPa): 1008 ± 1.2 kg/m3; mass density (6640 kPa): 1008 ± 1.2 kg/m3; mass density (6644.1 kPa): 1008.1 ± 1.2 kg/m3; mass density (6649 kPa): 1008 ± 1.2 kg/m3; mass density (6674.5 kPa): 1008 ± 1.2 kg/m3; mass density (6679.6 kPa): 1008 ± 1.2 kg/m3; mass density (6683.5 kPa): 1008.1 ± 1.2 kg/m3; mass density (6687.7 kPa): 1008.1 ± 1.2 kg/m3; mass density (6692 kPa): 1008.1 ± 1.2 kg/m3; mass density (6696.5 kPa): 1008 ± 1.2 kg/m3; mass density (6700.6 kPa): 1008 ± 1.2 kg/m3; mass density (6704.6 kPa): 1008 ± 1.2 kg/m3; mass density (6708.6 kPa): 1008 ± 1.2 kg/m3; mass density (6713.2 kPa): 1008 ± 1.2 kg/m3; mass density (6717.2 kPa): 1008.1 ± 1.2 kg/m3; mass density (6759.5 kPa): 1008.1 ± 1.2 kg/m3; mass density (6769.5 kPa): 1008.2 ± 1.2 kg/m3 and 1008.1 ± 1.2 kg/m3; mass density (6769.7 kPa): 1008.1 ± 1.2 kg/m3 and 1008 ± 1.2 kg/m3; mass density (6769.8 kPa): 1008 ± 1.2 kg/m3 and 1008.2 ± 1.2 kg/m3 and 1008.1 ± 1.2 kg/m3; mass density (6770 kPa): 1008.1 ± 1.2 kg/m3; mass density (6770.2 kPa): 1008 ± 1.2 kg/m3 and 1008.1 ± 1.2 kg/m3; mass density (6770.3 kPa): 1008.1 ± 1.2 kg/m3; mass density (6770.4 kPa): 1008.1 ± 1.2 kg/m3; mass density (6770.5 kPa): 1008.1 ± 1.2 kg/m3; mass density (6770.7 kPa): 1008 ± 1.2 kg/m3; mass density (6770.9 kPa): 1008 ± 1.2 kg/m3 and 1008.1 ± 1.2 kg/m3
